Test results taken from publication PMC7464270, “The Interaction of Bovine β-Lactoglobulin with Caffeic Acid: From Binding Mechanisms to Functional Complexes” (Biomolecules, 2020).

Molecular target: T1, native bovine β-lactoglobulin (n-β-LG) (Bos taurus, UniProt P02754)
T1 construct: gene LGB; dimer prevails at physiological pH
T1 sequence (P02754 17-178): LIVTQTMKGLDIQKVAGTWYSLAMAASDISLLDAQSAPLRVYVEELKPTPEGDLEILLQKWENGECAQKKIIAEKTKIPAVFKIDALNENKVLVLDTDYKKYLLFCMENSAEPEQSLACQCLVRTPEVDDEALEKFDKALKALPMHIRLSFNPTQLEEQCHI
Assay: intrinsic tryptophan fluorescence quenching (excitation […] nm)
Format: binding
Settings: native protein treated at 25 °C (measured at 23 ± 1 °C), Tris buffer pH 8.0; double-log

O=C(O)/C=C/c1ccc(O)c(O)c1 [CA, caffeic acid]
n-β-LG / Kb (10^6 Mol^-1): 0.72 ± 0.03 10^6 Mol^-1
